Test results: patent US10155728B2, “Compounds for treatment of cancer” (GTX INC., priority 2014, dated 2018)
Where “and” joins values, the source holds several entries; their conditions need not be identical. Identical values can stand only once. Like-named read-outs stand apart in the source and are kept apart here.

Experiments:
[1] = system: melanoma and prostate cancer cell lines; assay: SRB cytotoxicity assay, melanoma and prostate cancer cell lines; assay type: cell-based; conditions: SRB 96 h
Protocol: (§2) Cell Culture and Cytotoxicity Assay of Prostate Cancer and Melanoma. […] Melanoma cells were cultured in DMEM, supplemented with 5% FBS, 1% antibiotic/antimycotic mixture (Sigma-Aldrich, Inc., St. Louis, Mo., USA) and bovine insulin (5 μg/ml; Sigma-Aldrich).

[2] = Microsomal stability assay, human; assay type: in vitro ADME; conditions: for T1/2: human liver microsomes, 0.5 μM
Protocol: (§1) Microsomal Stability Assay. […] For metabolite identification, the reaction mixture was incubated for 2 h with 50 μM test compound concentration under the previously described conditions. The supernatants were analyzed using a Water Xevo G2-S high resolution mass spectrometer.

[3] = Microsomal stability assay, mouse; assay type: in vitro ADME; conditions: for T1/2: mouse liver microsomes, 0.5 μM
Protocol: as §1

[4] = Microsomal stability assay, rat; assay type: in vitro ADME; conditions: for T1/2: rat liver microsomes, 0.5 μM
Protocol: as §1

[5] = Metabolite identification in liver microsomes; assay type: in vitro ADME; conditions: 50 μM, 2 h incubation, high resolution MS
Protocol: as §1
We utilized a high resolution mass spectrometer for the identification of the metabolites with a mass error of less than 2 ppm generally. The detailed information regarding the mass spectrum and the chromatogram of each of the metabolites are presented in the supplementary materials. […] M4 (identified by mass spectrum 388.12 [M+1]) was the product that resulted from ketone reduction and it was further hydroxylated to M5 (identified by mass spectrum 404.12 [M+1]) at a position that was unidentifiable due to limited information. […] M7 (deamination) (identified by mass spectrum 370.11 [M+1]) was a minor product. […] M9 (identified by mass spectrum 386.15 [M+1]) and M10 (identified by mass spectrum 416.16 [M+1]) had more than one possible structure as indicated in the chromatograms. For 7 (FIG. 11), various metabolites including 0-demethylation (M12) (identified by mass spectrum 387.15 [M+1]), mono-hydroxylation (M14) (identified by mass spectrum 417.16 [M+1]), O-demethylation followed by mono-hydroxylation (M11) (identified by mass spectrum 403.14 [M+1]), and dihydroxylation (M13) (identified by mass spectrum 433.15 [M+1]) were detected.

Bovine brain tubulin = biological target: T1, Bovine brain tubulin (Bos taurus, UniProt P81947+Q6B856); assay: In vitro tubulin polymerization assay; assay type: biochemical; conditions: for inhibition at 5 µM / inhibition at 10 µM: after 20 min incubation, compared to vehicle; for Inhibition of tubulin polymerization relative to colchicine (in words): 5 and 10 μM
T1 construct: Bovine brain tubulin (0.4 mg, >97% pure) (Cytoskeleton, Denver, Colo.); purchased Cytoskeleton, Denver, Colo; host or cells: bovine brain tissue
T1 sequence (Q6B856 whole entry): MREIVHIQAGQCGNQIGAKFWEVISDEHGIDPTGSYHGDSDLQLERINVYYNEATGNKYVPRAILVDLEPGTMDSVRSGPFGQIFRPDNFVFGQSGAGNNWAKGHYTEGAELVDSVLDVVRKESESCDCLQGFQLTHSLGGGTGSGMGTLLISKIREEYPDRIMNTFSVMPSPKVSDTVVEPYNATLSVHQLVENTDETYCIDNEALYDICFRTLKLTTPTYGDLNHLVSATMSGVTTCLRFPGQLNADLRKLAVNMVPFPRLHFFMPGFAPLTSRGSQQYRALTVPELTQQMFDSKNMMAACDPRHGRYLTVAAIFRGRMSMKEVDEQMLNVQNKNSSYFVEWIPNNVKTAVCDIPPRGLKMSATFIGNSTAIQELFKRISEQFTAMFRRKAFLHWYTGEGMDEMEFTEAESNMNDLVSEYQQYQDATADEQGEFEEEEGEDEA
T1 sequence (P81947 whole entry): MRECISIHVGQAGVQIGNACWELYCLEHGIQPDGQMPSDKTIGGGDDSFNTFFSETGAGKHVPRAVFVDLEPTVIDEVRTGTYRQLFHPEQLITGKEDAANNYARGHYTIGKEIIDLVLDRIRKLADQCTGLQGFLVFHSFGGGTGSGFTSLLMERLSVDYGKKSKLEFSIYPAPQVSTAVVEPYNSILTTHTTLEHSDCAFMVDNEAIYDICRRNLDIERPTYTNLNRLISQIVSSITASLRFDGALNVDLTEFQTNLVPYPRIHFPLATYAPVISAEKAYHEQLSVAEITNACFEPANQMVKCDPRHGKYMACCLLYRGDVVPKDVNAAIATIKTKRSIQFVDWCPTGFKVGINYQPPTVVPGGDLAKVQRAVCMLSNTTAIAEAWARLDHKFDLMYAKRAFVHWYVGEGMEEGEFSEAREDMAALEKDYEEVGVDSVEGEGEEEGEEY
Protocol: In Vitro Tubulin Polymerization Assay. […] […] The spectrophotometer was set at 37° C. for tubulin polymerization. […] DMSO was used as a blank control.

A375 cells = assay: SRB cytotoxicity assay, A375 melanoma cells; assay type: cell-based; conditions: for IC50: SRB assay after 96 h of treatment, read-out: IC50 against A375 cells
Protocol: as §2

LNCaP cells = assay: SRB cytotoxicity assay, LNCaP prostate cancer cells; assay type: cell-based, human; conditions: androgen sensitive prostate cancer LNCaP cells
Protocol: as §2

[6] = Microsomal stability, liver microsomes over tested species; assay type: in vitro ADME
Protocol: as §1

[7] = system: K562 human leukemia cells; conditions: read-out: IC50 against K562 human leukemia cells; cited from earlier work

SMILES | Antiproliferative activity (in words) [1] | T1/2 [2] | Major metabolites / metabolic pathway [5] | T1/2 [3] | T1/2 [4] | also measured
COc1cc(-c2cccc3[nH]c(-c4c[nH]c5ccccc45)nc23)cc(OC)c1OC [Compound 4, 2-(1H-Indol-3-yl)-4-(3,4,5-trimethoxyphenyl)-1H-benzo[d]imidazole] | comparable potency | 50.7 ± 1.2 min | O-demethylation (M9) and mono-hydroxylation (M10) | – | – | half-life at 0.5 μM ([2]; human, pooled liver microsomes, pH 7.4, human liver microsomes): 51 min; half-life at 0.5 μM ([3]; pH 7.4, mouse liver microsomes): 53.5 ± 2.4 min; half-life at 0.5 μM ([4]; pH 7.4, rat liver microsomes): 72.3 ± 4.6 min; inhibition at 5 µM (Bovine brain tubulin): 30%; inhibition at 10 µM (Bovine brain tubulin): 60%; Inhibition of tubulin polymerization relative to colchicine (in words) (Bovine brain tubulin): stronger inhibition than colchicine
COc1cc(-c2nccc3[nH]c(-c4ccc5[nH]ccc5c4)nc23)cc(OC)c1OC [Compound 7, 2-(1H-Indol-5-yl)-4-(3,4,5-trimethoxyphenyl)-1H-imidazo[4,5-c]pyridine] | increased potency | 45 min and 45.3 ± 2.0 min | formed very evenly with similar relative amount | 19.7 ± 0.7 min | 30.4 ± 1.9 min | IC50 improvement compared to 10 and 4 (A375 cells; melanoma A375 cells): at least 5 fold; IC50 improvement compared to 10 and 4 (LNCaP cells): at least 5 fold; inhibition at 5 µM (Bovine brain tubulin): ~33%; inhibition at 10 µM (Bovine brain tubulin): ~81%; Inhibition of tubulin polymerization relative to colchicine (in words) (Bovine brain tubulin): stronger inhibition than colchicine
COc1cc(C(=O)c2csc(-c3ccccc3)n2)cc(OC)c1OC [Compound 10, reference compound] | – | 17 min | – | <<5 min | 31 min | IC50 (A375 cells): 28 nM
COc1cc(C(=O)c2csc(-c3ccccc3)n2)cc(OC)c1OC(=O)CCl [Compound 12, 2,6-Dimethoxy-4-(2-phenylthiazole-4-carbonyl)phenyl 2-chloroacetate] | dropped significantly | – | – | – | – | –
COCOc1c(OC)cc(C(=O)c2csc(-c3ccccc3)n2)cc1OC [Compound 15, (3,5-Dimethoxy-4-(methoxymethoxy)phenyl)(2-phenylthiazol-4-yl)methanone] | improved activity | 7.8 ± 0.3 min | removal of the MOM group to form M1 | 4.0 ± 0.3 min | 9.7 ± 0.4 min | IC50 (A375 cells; Homo sapiens, A-375): 20 nM; Metabolic stability (in words) ([6]; any of the tested liver microsomes): did not improve its metabolic stability; half-life at 0.5 μM ([6]; pH 7.4, human, mouse, rat liver microsomes, read-out: T1/2 over tested species liver microsomes): < 10 min
COc1cc(C(=O)c2csc(-c3ccccc3)n2)cc(OC)c1OCCN1C(=O)c2ccccc2C1=O [Compound 17, 2-(2-(2,6-Dimethoxy-4-(2-phenylthiazole-4-carbonyl)phenoxy)ethyl)isoindoline-1,3-dione] | micromolar range potency | – | – | – | – | –
COc1cc(C(=O)c2c[nH]c(Nc3ccccc3)n2)cc(OC)c1OC [Compound 27, (2-(Phenylamino)-1H-imidazol-4-yl)(3,4,5-trimethoxyphenyl)methanone] | did not demonstrate any activity | – | – | – | – | –
COc1cc(C(=O)c2csc(Nc3ccc4[nH]ccc4c3)n2)cc(OC)c1OC [Compound 33, (2-((1H-Indol-5-yl)amino)thiazol-4-yl)(3,4,5-trimethoxyphenyl)methanone] | excellent growth inhibition | – | – | – | – | IC50 change compared to PAT (prostate cancer cells): 2-3 fold
COc1ccc(/C=C(\C)C(=O)c2cc(OC)c(OC)c(OC)c2)cc1O [SD400] | – | – | – | – | – | IC50 [7]: 0.21 nM
